Experimental findings from patent US20260130856A1, “LIPOSOME COMPOSITIONS FOR DELIVERY OF COMPOUNDS AND METHODS THEREOF” (NanoTech Pharma Inc., priority 2022, published 2026) are described below.

The data set is described as follows: In vivo pharmacokinetics study of carfilzomib formulations, plasma carfilzomib by LC-MS. The note with it: BALB/c nude, mouse, mice, intravenous via tail vein, 5.0 mg/kg. The procedure: The carfilzomib-loaded liposome was prepared based on the description in Example 17. In-vivo pharmacokinetics study was carried out in BALB/c nude mice. Carfilzomib drug solution (free drug) and liposomal carfilzomib were administered intravenously via the tail vein into the mice and the plasma concentration of carfilzomib of both formulations were monitored over time by LC-MS. The injection dose of both drug formulations was 5.0 mg/kg. After intravenous administration, blood was collected at pre-determined time points (3 mice per time point) and was placed into EDTA coated micro containers. The samples were then centrifuged to separate plasma. Plasma levels of carfilzomib were quantified by using LC-MS. PK parameters were then calculated from measured drug plasma concentrations over time.

As usually defined, the AUC(0-t) is the area under the concentration-time curve up to a stated or last time point. High values mean more exposure, low ones less exposure. The clearance is the volume of plasma or blood freed of the substance per unit of time. Lower therefore signals a low capacity for elimination. As a reminder, the half-life is how long it takes for the measured level to halve. Low values mean fast loss, high ones slow loss. Take `CC(C)C[C@H](NC(=O)[C@H](CCc1ccccc1)NC(=O)CN1CCOCC1)C(=O)N[C@@H](Cc1ccccc1)C(=O)N[C@@H](CC(C)C)C(=O)[C@@]1(C)CO1` [Free carfilzomib, carfilzomib]: the AUC(0-t) worked out at 486 ng·h/mL, the clearance was determined as 170 mL/min/kg and the half-life was 19.2 min. Further, the Vd (read-out: Vdss) amounted to 5.36 L/kg.
